Legend:
Assay in all cases: relative viability (nuclei count vs DMSO), 5 days (fraction); higher = more cells survive
Dactolisib + Crizotinib = compound: Cn1c(=O)n(-c2ccc(C(C)(C)C#N)cc2)c2c3cc(-c4cnc5ccccc5c4)ccc3ncc21 [Dactolisib] + C[C@@H](Oc1cc(-c2cnn(C3CCNCC3)c2)cnc1N)c1c(Cl)ccc(F)c1Cl [Crizotinib] (partner 1 µM)
How it was run: (§1)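 Medians of duplicate plates are given as relative viability. That measure is the nuclei count in treated wells divided by the count in vehicle wells. Counts were taken on 4× images of lung cancer cell lines in 1536-well plates, 5 days after pin-tool dosing the day after seeding with one drug alone or a fixed anchor-drug dose plus five library-drug doses (not always all listed) in √10 steps.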

Dactolisib + Pemetrexed = compound: Cn1c(=O)n(-c2ccc(C(C)(C)C#N)cc2)c2c3cc(-c4cnc5ccccc5c4)ccc3ncc21 [Dactolisib] + Nc1nc2[nH]cc(CCc3ccc(C(=O)N[C@@H](CCC(=O)O)C(=O)O)cc3)c2c(=O)[nH]1 [Pemetrexed] (partner 0.2 µM)
How it was run: as §1

AZ505 + Tozasertib = compound: C1CCC(CC1)N(CCNCCC2=C3C(=C(C=C2)O)NC(=O)CO3)C(=O)CCNCCC4=CC(=C(C=C4)Cl)Cl [AZ505] + Cc1cc(Nc2cc(N3CCN(C)CC3)nc(Sc3ccc(NC(=O)C4CC4)cc3)n2)n[nH]1 [Tozasertib] (partner 0.1 µM)
How it was run: as §1

Dactolisib + Navitoclax = compound: Cn1c(=O)n(-c2ccc(C(C)(C)C#N)cc2)c2c3cc(-c4cnc5ccccc5c4)ccc3ncc21 [Dactolisib] + CC1(C)CCC(c2ccc(Cl)cc2)=C(CN2CCN(c3ccc(C(=O)NS(=O)(=O)c4ccc(N[C@H](CCN5CCOCC5)CSc5ccccc5)c(S(=O)(=O)C(F)(F)F)c4)cc3)CC2)C1 [Navitoclax] (partner 0.5 µM)
How it was run: as §1

Row | Cell Line | relative viability (Dactolisib + Crizotinib; first compound 0.002 µM) | relative viability (Dactolisib + Crizotinib; first compound 0.006325 µM) | relative viability (Dactolisib + Crizotinib; first compound 0.02 µM) | relative viability (Dactolisib + Crizotinib; first compound 0.06325 µM) | relative viability (Dactolisib + Crizotinib; first compound 0.2 µM) | relative viability (Dactolisib + Pemetrexed; first compound 0.002 µM) | relative viability (Dactolisib + Pemetrexed; first compound 0.006325 µM) | relative viability (Dactolisib + Pemetrexed; first compound 0.02 µM) | relative viability (Dactolisib + Pemetrexed; first compound 0.06325 µM) | relative viability (Dactolisib + Pemetrexed; first compound 0.2 µM) | relative viability (AZ505 + Tozasertib; first compound 0.08 µM) | relative viability (AZ505 + Tozasertib; first compound 0.253 µM) | relative viability (AZ505 + Tozasertib; first compound 0.8 µM) | relative viability (AZ505 + Tozasertib; first compound 2.53 µM) | relative viability (AZ505 + Tozasertib; first compound 8 µM) | relative viability (Dactolisib + Navitoclax; first compound 0.002 µM) | relative viability (Dactolisib + Navitoclax; first compound 0.02 µM) | relative viability (Dactolisib + Navitoclax; first compound 0.06325 µM) | relative viability (Dactolisib + Navitoclax; first compound 0.2 µM) | relative viability (Dactolisib + Navitoclax; first compound 0.006325 µM)
1 | LC-2-ad | 0.403 | 0.477 | 0.505 | 0.338 | 0.4 | 0.263 | 0.302 | 0.276 | 0.264 | 0.272 | 0.478 | 0.415 | 0.436 | 0.411 | 0.413 | 0.453 | 0.285 | 0.189 | 0.159 | 
2 | SW 1573 | 0.989 | 0.712 | 0.66 | 0.572 | 0.317 | 0.696 | 0.768 | 0.584 | 0.284 | 0.203 | 0.174 | 0.169 | 0.175 | 0.171 | 0.144 | 1.09 | 0.775 | 0.252 | 0.294 | 0.866
3 | ChaGo-K-1 | 1.06 | 1.03 | 1.1 | 1.12 | 1.13 | 0.27 | 0.261 | 0.255 | 0.256 | 0.247 | 0.2 | 0.232 | 0.244 | 0.216 | 0.238 | 0.92 | 0.975 | 1.13 | 0.765 | 1.03
4 | COR-L 105 | 0.85 | 0.874 | 0.561 | 0.645 | 0.283 | 1.22 | 1.25 | 0.891 | 0.892 | 0.356 | 0.354 | 0.34 | 0.341 | 0.335 | 0.403 | 0.754 | 1.02 | 0.323 | 0.271 | 0.759

From the supplement of paper PMC10307832
